Data published in the supplement of paper PMC10307832.

Compound: COC1=C(C=C(C=C1)C2=CC3=NC=CN3C(=N2)NC4=C(C=CC=N4)C(=O)N)OC [BAY61-3606] + CC(=O)Nc1cccc(-n2c(=O)n(C3CC3)c(=O)c3c(Nc4ccc(I)cc4F)n(C)c(=O)c(C)c32)c1 [Trametinib] (partner 0.02 µM)
Assay: relative viability (nuclei count vs DMSO), 5 days (fraction); higher = more cells survive
Settings: first compound 2 µM
Summary of the method: (§1)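 For relative viability, nuclei counts in treated wells were divided by those in vehicle wells. Lung cancer cell lines had been pin-tool dosed in 1536-well plates the day after seeding and cultured for 5 days, then fixed and stained in one step (final 0.05% Triton X-100, 1% formaldehyde, 1 ug/ml Hoechst) and imaged at 4×. Doses were one drug alone or a fixed anchor-drug dose plus five library-drug doses (not always all listed) in √10 steps, and values are duplicate-plate medians.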

Cell Line	relative viability
NCI-H1915	0.246

Compound: COc1cccc2c1C(=O)c1c(O)c3c(c(O)c1C2=O)C[C@@](O)(C(=O)CO)C[C@@H]3O[C@H]1C[C@H](N)[C@H](O)[C@H](C)O1 [Doxorubicin] + C[C@@H](Oc1cc(-c2cnn(C3CCNCC3)c2)cnc1N)c1c(Cl)ccc(F)c1Cl [Crizotinib] (partner 1 µM)
Assay: as above
Settings: first compound 0.001 µM
Summary of the method: as §1

Cell Line	relative viability
ChaGo-K-1	1.15
NCI-H322M	1.02
HCC-78	0.356
LXF-289	0.761
BEN	0.925
HARA	1.04
HCC-827	0.982
NCI-H520	0.649
NCI-H2023	0.598
A-427	0.855
NCI-H647	1.02
PC-3 [JPC-3]	0.999
NCI-H1755	0.867
NCI-H650	0.878
NCI-H3122	0.247
NCI-H441	0.827
201T	1
NCI-H1975	0.853
HOP-62	1.04
NCI-H2405	0.843
NCI-H1355	1.05
NCI-H838	0.8
NCI-H1666	1.02
EPLC-272H	1.37
NCI-H2347	0.869
NCI-H1915	0.917

Same assay, conditions: first compound 0.003162 µM

Cell Line	relative viability
ChaGo-K-1	1.01
NCI-H322M	1.07
HCC-78	0.332
LXF-289	0.832
BEN	0.968
HARA	1.04
HCC-827	0.993
NCI-H520	0.597
LOU-NH91	0.763
NCI-H2023	0.679
A-427	1.02
NCI-H647	1.26
PC-3 [JPC-3]	1
NCI-H1755	0.943
NCI-H650	0.657
NCI-H3122	0.302
NCI-H441	0.644
201T	1.07
NCI-H1975	1.09
HOP-62	1.02
NCI-H2405	0.869
NCI-H1355	1.16
NCI-H838	0.877
NCI-H1666	0.915
EPLC-272H	0.965
NCI-H2347	0.735
NCI-H1915	0.915

Same assay, conditions: first compound 0.01 µM

Cell Line	relative viability
ChaGo-K-1	0.98
NCI-H322M	0.86
HCC-78	0.395
LXF-289	0.832
BEN	0.825
HARA	1.03
HCC-827	0.913
NCI-H520	0.793
LOU-NH91	0.772
NCI-H2023	0.36
A-427	0.897
NCI-H647	0.84
PC-3 [JPC-3]	0.977
NCI-H1755	0.862
NCI-H650	0.562
NCI-H3122	0.295
NCI-H441	0.63
201T	1.05
NCI-H1975	0.946
HOP-62	0.956
NCI-H2405	0.846
NCI-H1355	1.01
NCI-H838	0.87
NCI-H1666	0.608
EPLC-272H	1.01
NCI-H2347	0.735
NCI-H1915	0.871

Same assay, conditions: first compound 0.03162 µM

Cell Line	relative viability
ChaGo-K-1	0.45
NCI-H322M	0.922
HCC-78	0.352
LXF-289	0.837
BEN	0.707
HARA	1.01
HCC-827	0.955
NCI-H520	0.616
LOU-NH91	0.674
NCI-H2023	0.0967
A-427	0.978
NCI-H647	0.375
PC-3 [JPC-3]	0.931
NCI-H1755	0.915
NCI-H650	0.568
NCI-H3122	0.257
NCI-H441	0.487
201T	1.05
NCI-H1975	0.431
HOP-62	0.901
NCI-H2405	0.871
NCI-H1355	0.964
NCI-H838	0.417
NCI-H1666	0.295
EPLC-272H	0.806
NCI-H2347	0.603
NCI-H1915	0.889

Same assay, conditions: first compound 0.1 µM

Cell Line	relative viability
ChaGo-K-1	0.378
NCI-H322M	0.893
HCC-78	0.28
LXF-289	0.805
BEN	0.832
HARA	0.959
HCC-827	0.908
NCI-H520	0.501
LOU-NH91	0.711
NCI-H2023	0.0644
A-427	0.88
NCI-H647	0.17
PC-3 [JPC-3]	0.936
NCI-H1755	0.887
NCI-H650	0.534
NCI-H3122	0.282
NCI-H441	0.48
201T	1.04
NCI-H1975	0.423
HOP-62	1.01
NCI-H2405	0.85
NCI-H1355	1.05
NCI-H838	0.234
NCI-H1666	0.285
EPLC-272H	0.861
NCI-H2347	0.503
NCI-H1915	0.952

Compound: COC1=C(C=C(C=C1)C2=CC3=NC=CN3C(=N2)NC4=C(C=CC=N4)C(=O)N)OC [BAY61-3606] + CC(C)C[C@H](NC(=O)[C@H](Cc1ccccc1)NC(=O)c1cnccn1)B(O)O [Bortezomib] (partner 0.002 µM)
Assay: as above
Settings: first compound 0.02 µM
Summary of the method: as §1

Cell Line	relative viability
ChaGo-K-1	1.22
NCI-H322M	1.27
HCC-78	0.452
LXF-289	0.985
BEN	0.99
HARA	1.08
HCC-827	1.03
NCI-H520	1.1
LOU-NH91	0.52
NCI-H2023	1.1
A-427	1.04
NCI-H647	1.16
PC-3 [JPC-3]	0.833
NCI-H1755	0.953
NCI-H650	0.917
NCI-H3122	0.947
NCI-H441	0.729
201T	1.03
NCI-H1975	0.427
HOP-62	0.869
NCI-H2405	0.992
NCI-H1355	1.19
NCI-H838	0.954
NCI-H1666	0.99
EPLC-272H	1.01
NCI-H2347	1.09
NCI-H1915	0.929

Same assay, conditions: first compound 0.06325 µM

Cell Line	relative viability
ChaGo-K-1	0.933
NCI-H322M	1.27
HCC-78	0.535
LXF-289	1.03
BEN	0.829
HARA	1.14
HCC-827	1.07
NCI-H520	0.602
LOU-NH91	0.485
NCI-H2023	1.08
A-427	0.889
NCI-H647	1.06
PC-3 [JPC-3]	0.841
NCI-H1755	0.961
NCI-H650	0.766
NCI-H3122	1.02
NCI-H441	0.51
201T	1.1
NCI-H1975	0.349
NCI-H2405	0.973
NCI-H1355	1.07
NCI-H838	0.738
EPLC-272H	0.931
NCI-H2347	0.815
NCI-H1915	1

Same assay, conditions: first compound 0.2 µM

Cell Line	relative viability
ChaGo-K-1	1.03
NCI-H322M	1.19
HCC-78	0.526
LXF-289	0.992
BEN	0.764
HARA	1.19
HCC-827	1.01
NCI-H520	0.843
LOU-NH91	0.462
NCI-H2023	1.09
A-427	0.994
NCI-H647	1.19
PC-3 [JPC-3]	0.826
NCI-H1755	0.957
NCI-H650	0.618
NCI-H3122	1.05
NCI-H441	0.479
201T	1.09
NCI-H1975	0.421
HOP-62	1.16
NCI-H2405	0.961
NCI-H1355	1.17
NCI-H838	0.748
NCI-H1666	0.836
EPLC-272H	0.915
NCI-H2347	0.971
NCI-H1915	0.9

Same assay, conditions: first compound 0.6325 µM

Cell Line	relative viability
ChaGo-K-1	0.917
NCI-H322M	1.1
HCC-78	0.479
LXF-289	1.04
BEN	0.799
HARA	1.09
HCC-827	1.02
NCI-H520	0.84
LOU-NH91	0.467
NCI-H2023	1.24
A-427	1.05
NCI-H647	1.07
PC-3 [JPC-3]	0.834
NCI-H1755	1.07
NCI-H650	0.681
NCI-H3122	0.988
NCI-H441	0.607
201T	1.13
NCI-H1975	0.395
HOP-62	0.443
NCI-H2405	0.964
NCI-H1355	1.27
NCI-H838	0.822
NCI-H1666	0.806
EPLC-272H	0.958
NCI-H2347	0.869
NCI-H1915	0.925

Same assay, conditions: first compound 2 µM

Cell Line	relative viability
ChaGo-K-1	1.1
NCI-H322M	1.14
HCC-78	0.427
LXF-289	0.99
BEN	0.931
HARA	1.1
HCC-827	1.1
NCI-H520	0.433
LOU-NH91	0.454
NCI-H2023	0.735
A-427	0.871
NCI-H647	0.696
PC-3 [JPC-3]	0.793
NCI-H1755	0.923
NCI-H650	0.72
NCI-H3122	1
NCI-H441	0.434
201T	1.09
NCI-H1975	0.244
HOP-62	0.723
NCI-H2405	0.942
NCI-H1355	1.21
NCI-H838	0.501
NCI-H1666	0.683
EPLC-272H	0.951
NCI-H2347	1.01
NCI-H1915	0.913
